Source: patent publication US7220784B2, “Substituted stilbenes and their reactions” (priority 2000, dated 2007)
Values joined by “and” are separate entries in the source; they are usually repeats but may differ in a detail not shown here. Equal values may be shown once.

Columns and labels:
[1] = test system: H460 human lung cancer xenografts; test: Anti-tumour efficacy in xenografts of H460 human lung cancer; assay type: in vivo, mice; settings: H460 human lung cancer xenograft
Method: (§1) (2) Competition for the colchicine binding site on tubulin. The figure quoted represents the % of ^3H-colchicine bound following co-incubation of test compound and ^3H-cochicine with isolated tubulin. Where ester pro-drugs were used the experiments were carried out in the presence and absence of porcine liver esterase. • (3) Cytotoxicity/growth inhibition assay. This was carried out by the MTT assay. • (4) Permeability (shape-change) assay in endothelial cells. This was carried out using a method based on that of Watts et al. (Anticancer Res., 17, 71–75, (1997)). This involved the diffusion of a fluorescently labelled dextran through a barrier of endothelial cells (HUVEC) grown to confluence on a porous membrane. […] The anti-vascular effects of the agents were monitored by either positron emission tomography (PET) or by histologogical examination following treatment of mice bearing T50:80 murine breast tumours, or H460 human lung tumours. • (6) Anti-tumour efficacy of agents was determined in xenografts of H460 human lung cancer. Animals (n=5) were trated either with 5 daily injections and tumour size measured with time following treatment. • (7) The pharmacokinetic profile of agents was determined in mice following injection with drug. Blood was taken at various times following treatment and analysed by HPLC with UV detection. […]

[2] = test system: HUVEC; test: Growth inhibition studies using HUVEC; assay type: cell-based, human
How it was run: (§2)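 MTT cytotoxicity/growth-inhibition assay in human cell lines including A2780, A2780/ADR, H460 and HUVEC.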

[3] = test system: A2780; test: Cytotoxicity/growth inhibition assay (MTT), A2780; assay type: cell-based; settings: read-out: A2780 IC50
How it was run: as §2

[4] = test system: liver metastatic T50:80 tumours; test: Anti-vascular effects, histological examination of T50:80 tumours; assay type: in vivo, mice
Method: as §1

[5] = test system: colchicine binding site on tubulin; test: Competition for the colchicine binding site on tubulin

Compound: COc1ccc(C=Cc2cc(OC)c(OC)c(OC)c2)cc1F [Compound 97-64H]
- anti-tumour activity in vivo [1]: shows anti-tumour activity in vivo
- concentration necessary to inhibit the growth of HUVEC cells in vitro [2]: 0.001 mM
- IC50 ([2]; Homo sapiens, HUVEC): 2.4 nM
- IC50 [3]: 3.66 nM
- examination of tumours for vascular damage ([4]; 2/3 or 3/4 of MTD, 2 hr, 4 hr, 24 hr, 48 hr after administration): tumour necrosis, blocked vessels, infiltration with red blood cells
- time by which vascular effects are seen ([4]; mouse, in vivo): ≤ 2 h
- Colchicine % Inhibition [5]: 79% and 70%
